Data: US20240384311A1, “POLYHYDROXYALKANOATES AND METHODS OF MAKING THEREOF” (The Board of Trustees of the Leland Stanford Junior …, priority 2021, published 2024)
Like-named read-outs stand apart in the source and are kept apart here.

What was measured:
Assay type in all cases: cell-based
[1] = system: Cupriavidus necator H16 wild-type; experiment: Shake-flask cultivation with externally supplied hydroxy carbonic acids (toxicity limit, growth), wild-type strain; conditions: for final biomass: H16 wild-type cultivated with the hydroxyalkanoate at its listed concentration, 2 g/L ammonium chloride
Method: (§1) Liquid cultures under heterotrophic conditions were conducted in 500 mL vented, baffled shake-flasks (WHEATON® Erlenmeyer Flasks with DuoCap®. DWK Life Sciences), incubated with shaking at 180 rpm on an innova 2300 platform shaker (New Brunswick Scientific) at 30° C. For feeding experiments, precultures of the engineered C. necator strains were inoculated in liquid RB+kan (50 mL) from solid RB+kan and grown over-night. In the morning the medium was exchanged for MSM+kan, diluting the culture 1:2 (in 100 mL). In the afternoon the seed-culture was washed with MSM and again diluted 1:2 (in 200 mL) with MSM+kan+polymer-precursor and induced with arabinose (1 g/L, unless indicated otherwise) in the evening. OD was monitored accompanied by collection of supernatant samples.
(§2) In a PHA-negative knock-out mutant (ΔphaC1) of the type-strain ‘H16’, pct540 & phaC1437 and hadA & phaC1437 were expressed, respectively.
(§3) Toxicity limits of the respective hydroxy carbonic acids were determined outgoing from 20 mM down in steps of 5 mM until acceptable growth was obtained in shake-flask experiments at 30° C.
(§4) Cultivations conducted on minimal salt medium with 30 g/L fructose as carbon-source and 2 g/L ammonium chloride as nitrogen-source (limiting). Cultures were inoculated at an OD600 of ≈0.5-1.

[2] = system: Cupriavidus necator H16 ΔphaC1 hadA-phaC1437; conditions: shake-flask, 30° C., determined from 20 mM down in steps of 5 mM until acceptable growth
Method: as §1, §2, §3, §4

[3] = system: Cupriavidus necator H16 ΔphaC1 pct540-phaC1437; conditions: for Concentration (maximum non-toxic concentration of hydroxyalkanoate): H16 ΔphaC1 pct540-phaC1437, shake-flask, 30° C., determined from 20 mM down in steps of 5 mM until acceptable growth; for final biomass: H16 ΔphaC1 pct540-phaC1437 cultivated with the hydroxyalkanoate at its listed concentration, 30 g/L fructose, 2 g/L ammonium chloride
Method: as §1, §2, §3, §4

[4] = H16 wild-type, shake-flask, 30° C., determined from 20 mM down in steps of 5 mM until acceptable growth, MSM, 30 g/L fructose

Structure (SMILES)	final biomass ([1]; 30 g/L fructose)	Concentration (maximum non-toxic concentration of hydroxyalkanoate) [1, 4]	Concentration (maximum non-toxic concentration of hydroxyalkanoate) [2]	Concentration (maximum non-toxic concentration of hydroxyalkanoate) [3]	final biomass [3]	Concentration (maximum non-toxic concentration of hydroxyalkanoate) [1]
O=C(O)CCCCCO [6-hydroxyhexanoic acid]	3.5 g/L	(<10 mM)	(<10 mM)	(<10 mM)	1.5 g/L	
CC(O)C(=O)O (centres unmarked) [lactic acid]	18.2 g/L				1.9 g/L	20 mM
O=C(O)C(O)c1ccccc1 (centres unmarked) [mandelic acid]			5000 µM			
O=C(O)/C=C/c1ccc(O)cc1 [para-coumaric acid]			5000 µM			
O=C(O)/C=C/c1ccc(O)c(O)c1 [caffeic acid]			5000 µM			
O=C(O)CCO [3-hydroxypropanoic acid]	5.7 g/L	20 mM	20000 µM	20000 µM	1.6 g/L	
O=C(O)C(O)CCc1ccccc1 (centres unmarked) [2-hydroxy-4-phenylbutanoic acid]			15000 µM			
O=C(O)C(O)Cc1ccccc1 (centres unmarked) [phenyllactic acid]			10000 µM			
O=C(O)CO [glycolic acid]	6.8 g/L				1.4 g/L	
O=C(O)CCCO [4-hydroxybutanoic acid]	4.1 g/L	20 mM	20000 µM	20000 µM	1.9 g/L	
O=C(O)CCc1ccc(O)cc1 [phloretic acid]			5000 µM			
